The text below walks through data of PMC5430962, “Retro-inverso Urokinase Receptor Antagonists for the Treatment of Metastatic Sarcomas” (Scientific Reports, 2017).

The test system of one series is GFP-tagged Sarc cells. Nature of the series: Growth and spread of subcutaneous GFP-tagged Sarc tumors in nude mice. The series is classed as in vivo, Foxn1nu/nu female nude mice. Conditions: 6 mg/Kg i.p. every day for 12 days, five mice per group. As to the method:
To evaluate the effect of RI-3 on tumor growth and vascularization, Sarc cells were injected, as a single-cell suspension (1 × 10^6 cells in 100 µl of sterile PBS, 97% viability), subcutaneously in the flanks of sixteen six-eight weeks old, Foxn1nu/nu female nude mice (Harlan). Animals were randomized into two 8-mice groups with the treatment group receiving 6 mg/kg RI-3 by intra-peritoneal injection every 24 hr, and the control group receiving an equivalent injected volume of vehicle (PBS) only. Time-dependent average weight was monitored every two days. The length and the width of tumors were measured at different time points with a calliper and volumes were calculated using the formula: ½ × (width)[2] × length (mm). After 10 days, blood samples (at least 500 µL/mouse) from the retro-orbital venous plexus of mice anesthetized with 1% isoflurane were collected using a heparinized capillary tube and processed for determination of the Circulating Tumor Cells (CTCs). Then, the animals were sacrificed, the excised tumors were fixed in buffered formalin and processed for paraffin sectioning. Tumor vascularization was assessed by counting vascular channels harbouring red blood cells on CD31 immuno-stained sections in 5 randomly chosen fields per section, in at least two sections per tumor at x 200 as described. Two additional experiments were carried out with the same experimental design by injecting GFP-tagged Sarc cells (1 × 10^6 cells/mouse) subcutaneously in the flanks of twenty-five six-eight weeks old, Foxn1nu/nu female nude mice (Harlan). Animals were treated with 6 mg/kg RI-3, 6 mg/kg RERF or vehicle by intra-peritoneal injection every 24 hr for 10 or 12 days. Tumor growth and the appearance of positive tumor lesions near tumors and in lungs were monitored as brightly visualized by GFP fluorescence with a MacroFluo fluorescence stereomicroscope (Leica). We searched for the presence of GFP-positive nodules on the entire surface of freshly isolated lungs. Lungs were also sliced at approximately 3-mm thickness to examine the parenchyma in depth, and the positive nodules were acquired at higher magnification.

The test system of series [1] is HT1080 cells. In words: HT1080 matrigel invasion toward 10% FBS in Boyden chambers. The series is classed as cell-based, human. As to conditions: 10 nM peptide plus 10% FBS, 6 hr, means of three independent experiments in triplicate. As to the method:
(§1) Cell migration in Boyden chambers was carried out for 4 hr at 37 °C in humidified air with 5% CO2, as described. Briefly, cell suspension (1 × 10^5 viable cells/mL serum free medium) was seeded in each upper chamber. Lower chambers were filled with DMEM alone, DMEM containing RI peptides, 10 nM fMLF, or 10% FBS with/without RI peptides. The two compartments were separated by 8 μm pore size polycarbonate filters (Neuroprobe) coated with 2.5 µg/mL vitronectin (Corning). For the invasion assays, 8 μm pore size filters were coated with 50 μg/filter matrigel (BD Biosciences) as previously described[40] and cells (3 × 10^4 viable cells/well) were allowed to invade matrigel for 6 hr at 37 °C, 5% CO2. In all cases, at the end of the assay, cells on the lower filter surface were fixed with ethanol, stained with haematoxylin and 10 random fields/filter were counted at 200× magnification. Each experiment was performed three times in triplicate.

Series [2] deals with HT1080 cells. Nature of the series: HT1080 cell migration toward 10% FBS in Boyden chambers. In kind it is cell-based, human. As to conditions: 10 nM peptide plus 10% FBS, 4 hr, means of three independent experiments in triplicate. Here is the method:
as §1

For series [3] the following is noted: cited from earlier work. From the text:
(§2) Following on this observation, we developed a series of linear peptides that inhibit the uPAR/FPR1 interaction and reduce to basal levels directional cell migration, invasion and angiogenesis[37]–[40]. While providing proof-of-principle for the strategy, none of these peptides represents an ideal lead molecule: many of these peptides are unstable to enzymatic digestion in human serum, which limits their half-life in vivo, whereas ...

Another series relates to sarcoma cell. Conditions: cited from earlier work.
Source text: as §2

The target of series [4] is T1, FPR1 (Homo sapiens, UniProt P21462).
T1 construct: expressed in transfected cells; host or cells: rat basophilic leukaemia RBL-2H3/ETFR cells (gift of F. Blasi)
T1 sequence (P21462 1-350): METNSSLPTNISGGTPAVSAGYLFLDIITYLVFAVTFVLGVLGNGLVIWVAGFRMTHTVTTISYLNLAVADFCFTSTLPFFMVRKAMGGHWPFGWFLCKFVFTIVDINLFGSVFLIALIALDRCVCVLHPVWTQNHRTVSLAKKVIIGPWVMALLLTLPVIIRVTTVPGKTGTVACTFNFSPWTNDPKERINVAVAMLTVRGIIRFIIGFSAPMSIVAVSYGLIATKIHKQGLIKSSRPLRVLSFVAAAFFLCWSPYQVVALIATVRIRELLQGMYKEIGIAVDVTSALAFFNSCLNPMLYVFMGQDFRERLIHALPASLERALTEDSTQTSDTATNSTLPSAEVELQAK
In words: Agonist-dependent FPR1 internalization, fluorescence microscopy in RBL-2H3/ETFR cells. The series is classed as cell-based. Conditions: 100 nM peptide 30 min at 37 °C, then 10 nM FITC-fMLF 30 min at 37 °C; confocal microscopy. Here is the method: Cells grown on glass slides to semi-confluence were exposed to diluents or the indicated unlabeled peptides for 30 min at 37 °C, then to 10 nM FITC-fMLF in PBS for additional 30 min at 37 °C and extensively rinsed with PBS. To visualize the cytoskeleton, the cells were fixed with 2.5% formaldehyde, permeabilized with 0.1% Triton X-100 for 10 min at 4 °C, and incubated with 0.1 µg/mL rhodamine-conjugated phalloidin (Sigma-Aldrich) for 40 min. In all cases, coverslips were mounted using 20% (w/v) Mowiol, visualized with a Zeiss 510META-LSM microscope (Carl Zeiss), and z-series were collected at 0.20 µm intervals.

Series [5] has as its system HT1080 cells. In words: HT1080 cell migration toward peptide as chemoattractant, xCELLigence RTCA. In kind it is cell-based, human. Conditions: migration toward 10 nM peptide, monitored 18 hr, quadruplicate. Here is the method:
The kinetics of cell migration was monitored in real time using the xCELLigence Real Time Cell Analysis (RTCA) technology (Acea Bioscience) as described, [80]. For these experiments we used CIM-plates which are provided with interdigitated gold microelectrodes on the bottom side of a filter membrane interposed between a lower and an upper compartment. The lower chamber was filled with serum-free medium or growth medium with/without RI peptides. Cells (2 × 10^4 cells/well) were seeded on filters in serum-free medium. Cell migration was monitored for 18 hr, and each experiment was performed at least twice in quadruplicate.

Series [6] concerns the target T1, FPR1. Nature of the series: Ligand binding assay: FITC-fMLF binding to RBL-2H3/ETFR cells. As to conditions: 100 nM unlabeled peptide 60 min at 4 °C, then 10 nM FITC-fMLF 60 min at 4 °C; fluorescence plate reader. Here is the method: RBL-2H3 cells, RBL-2H3/ETFR cells stably expressing FPR1 (1.5 × 10^6 cells/sample) were pre-incubated with diluents or the indicated unlabeled peptides for 60 min at 4 °C, extensively rinsed with phosphate buffer saline (PBS), exposed to 10 nM FITC-fMLF (Molecular Probes) in PBS for additional 60 min at 4 °C and again rinsed with PBS. Cell-associated fluorescence was quantitated with the fluorescence plate reader Victor 3 (Perkin Elmer) using 485 nm excitation and 535 nm emission filters. The experiments were performed three times in triplicate.

In another series the test system is monocyte. Conditions: read-out: IC50 of inhibition of fMLF-induced monocyte locomotion; cited from earlier work. The source says: The uPAR domains DI-DIII are connected by short linker regions. DI-DIII pack together into a concave structure that shifts to an active conformation upon binding to uPA[21], [22]. The linker between DI-DII is more flexible than that between the DII‒DIII domains[23]–[25], and includes the protease-sensitive crucial signaling region, uPAR84–95. In the form of a synthetic peptide, the minimal 88–92 sequence (Ser^88-Arg-Ser-Arg-Tyr^92, SRSRY) retains chemotactic activity and triggers directional cell migration and angiogenesis in vitro and in vivo [15]–[17], [26], [27]. Mechanistically, these ...

pIC50: −log10 of the molar value. Where a SMILES comes first, the peptide text is derived from it. Where no end group is shown, it is not given here. [ ]: non-standard residue; d: D form. The star is where a group is joined. Hydrocinnamoyl = O=C(CCc1ccccc1)*; PhAc = O=C(Cc1ccccc1)*; Aib = CC(C)(N)C(=O)O

As usually defined, the pIC50 is the negative decadic logarithm of the IC50, by convention in mol/L.

With `CC(=O)N[C@@H](CCCNC(=N)N)C(=O)N[C@@H](CCC(=O)O)C(=O)N[C@@H](CCCNC(=N)N)C(=O)N[C@@H](Cc1ccccc1)C(N)=O` [RERF, reference compound] (Ac-RERF-NH2), the “changes in body weight” value with GFP-tagged Sarc cells was “did not cause changes in body weight”.

As to `CC(=O)N[C@H](Cc1ccc(O)cc1)C(=O)N[C@H](CCCNC(=N)N)C(=O)N[C@H](CCC(=O)O)C(=O)N[C@H](CCCNC(=N)N)C(N)=O` [RI-1, Ac-(D)-Tyr-(D)-Arg-(D)-Glu-(D)-Arg-NH2] (Ac-[dY][dR][dE][dR]-NH2), the “reduction of the extent of cell invasion (matrigel)” value (shortened to “reduction … (matrigel)”) in the series on HT1080 cells [1] was found to be 27%. The “reduction of FBS-directed cell migration” value in the series on HT1080 cells [2] is reported as 33%.

On to `CC(=O)N[C@H](Cc1ccc(O)cc1)C(=O)N[C@H](CCCNC(=N)N)C(=O)N[C@H](CO)C(=O)N[C@H](CCCNC(=N)N)C(N)=O` [RI-2, Ac-(D)-Tyr-(D)-Arg-(D)-Ser-(D)-Arg-NH2] (Ac-[dY][dR][dS][dR]-NH2), for which, in the series on HT1080 cells [1], the “reduction … (matrigel)” value came to 23%. The “reduction of FBS-directed cell migration” value with HT1080 cells [2] is 29%.

Take `CC(C)(NC(=O)[C@@H](CCCNC(=N)N)NC(=O)Cc1ccccc1)C(=O)N[C@H](CCCNC(=N)N)C(N)=O` [RI-4, Phenyl-Acetyl-D-Arg-Aib-D-Arg-NH2] (PhAc-[dR]-[Aib]-[dR]-NH2): the “reduction … (matrigel)” value in the series on HT1080 cells [1] is on record as 23%. Also, in the series with HT1080 cells [2], the “reduction of FBS-directed cell migration” value was 37%.

Take `CC(C)(NC(=O)[C@@H](CCCNC(=N)N)NC(=O)CCc1ccccc1)C(=O)N[C@H](CCCNC(=N)N)C(N)=O` [RI-5, 3-Phenyl-Propionyl-D-Arg-Aib-D-Arg-NH2] (Hydrocinnamoyl-[dR]-[Aib]-[dR]-NH2): the “reduction … (matrigel)” value in the series on HT1080 cells [1] stood at 9%. Also, the “reduction of FBS-directed cell migration” value in the series with HT1080 cells [2] was 28%.

In the case of “Ac-L-Arg-Aib-L-Arg-D-Ca(Me)Phe-NH2 [UPARANT]”, the “stability in blood and resistance to enzymatic proteolysis” value in series [3] was “stable in blood and displays prolonged resistance to enzymatic proteolysis”. Moreover, the “inhibition of sarcoma cell invasion in a mouse model of lung colonization” value with sarcoma cell is reported as “does not inhibit”.

“N-formyl-Met-Leu-Phe [fMLF, N-formyl-methionyl-leucyl-phenylalanine, reference compound]”: the “effect on agonist-dependent FPR1 internalization” value at FPR1 [4] is recorded as “prevented”. Also, the “ability to trigger cell migration” value in the series with HT1080 cells [5] was “elicited a considerable cell migration”. For the same compound, the “effect on binding of FITC-fMLF to RBL-2H3/ETFR cells” value at FPR1 [6] is “strongly reduced”.

For the compound “cyclized SRSRY: cyclized form of the uPAR 88–92 sequence Ser-Arg-Ser-Arg-Tyr (also: cyclized, mode not given here)”, in the series on monocyte, the negative logarithm of the IC50 (pIC50) is 11.00.
